This assay has as its target Corticosteroid 11-beta-dehydrogenase isozyme 1. In words: Inhibition of human recombinant 11beta-HSD1 expressed in Pichia pastoris.

IC50 data for one molecule are collected here from BindingDB's records for doi:10.1021/jm800369f (Amgen, 2008).

Molecules are shown by their SMILES.

As to `O=C(Nc1cccc(C(=O)N2CCC[C@H]3CCCC[C@@H]32)c1)c1ccccc1` [N-(3-((4aR,8aS)-decahydroquinoline-1-carbonyl)phenyl)benzamide], the IC50 (as a rule, the midpoint of a concentration-inhibition curve) was determined as 14 nM.
